# From ChEMBL document CHEMBL5230096, “A comprehensive insight on the recent development of Cyclic Dependent Kinase inhibitors as anticancer agents” (Eur J Med Chem, 2020)
# Tests used:
# [1] = target: Cyclin-dependent kinase 1 (Homo sapiens, UniProt P06493); assay: Inhibition of CDK1 (unknown origin) assessed as inhibition constant
# [2] = tested on: B16-F10; assay: Antiproliferative activity against mouse B16-F10 cells assessed reduction in cell proliferation; assay type: functional, cell-based
# [3] = tested on: MCF7; assay: Antiproliferative activity against human MCF7 cells assessed reduction in cell proliferation; assay type: functional, cell-based
# [4] = target: Histone deacetylase; assay: Inhibition of HDAC (unknown origin); assay type: protein assay, Homo sapiens
# [5] = target: T1, Cyclin-dependent kinase 2 (Homo sapiens, UniProt P24941)
# Description: Inhibition of CDK2 (unknown origin)
# [6] = tested on: Human immunodeficiency virus 1; assay: Antiviral activity against HIV1; assay type: functional, organism-based
# [7] = tested on: Panel NCI-60 (60 carcinoma cell lines); assay: Antiproliferative activity against human Panel NCI-60 (60 carcinoma cell lines) assessed as reduction in cell viability at 10 uM; assay type: functional
# [8] = target: T2, CDK2/Cyclin A2 (Homo sapiens, UniProt P24941); assay: Inhibition of CDK2/Cyclin A2 (unknown origin) incubated for 40 mins in presence of ATP by Kinase-Glo Plus luminescence kinase assay; assay type: protein-complex assay
# [9] = target: T3, CDK2/Cyclin A2 (Homo sapiens) (UniProt P24941+P20248); assay: Inhibition of CDK2/Cyclin A2 (unknown origin) at 10 uM incubated for 40 mins in presence of ATP by Kinase-Glo Plus luminescence kinase assay; assay type: protein-complex assay
# [10] = target: T3, CDK2/Cyclin A2 (Homo sapiens); assay: Inhibition of CDK2/Cyclin A2 (unknown origin) at 10 uM by Kinase-Glo Plus luminescence kinase assay; assay type: protein-complex assay
# [11] = target: Cyclin-dependent kinase 2/cyclin E (Homo sapiens, UniProt P24941); assay: Inhibition of CDK2/Cyclin E (unknown origin) expressed in baculovirus infected Sf9 cells using histone H1 as substrate in presence of gamma32P-ATP by scintillation counter analysis
# [12] = tested on: K562; assay: Antiproliferative activity against human K562 cells assessed as reduction in cell proliferation incubated for 3 days by calcein AM staining based fluorescent analysis; assay type: functional; details: K562, 72 h
# [13] = target: Cyclin-dependent kinase 2/cyclin E1 (Homo sapiens, UniProt P24941); assay: Inhibition of CDK2/cyclin E1 (unknown origin) expressed in Sf9 cells using histone H1 as substrate in presence of ATP by microplate reader analysis
# [14] = tested on: MCF7; assay: Antiproliferative activity against human MCF7 cells assessed as reduction in cell proliferation incubated for 3 days by calcein AM staining based fluorescent analysis; assay type: functional; details: MCF7, 72 h
# [15] = target: T4, Protein cereblon/Cyclin-dependent kinase 9 (Homo sapiens) (UniProt P50750+Q96SW2); assay: Protac activity at CRBN/CDK9 in human HCT-116 cells assessed as induction of CDK9 degradation at 10 uM incubated for 6 hrs by Western blot analysis; assay type: cell-based
# [16] = target: T4, Protein cereblon/Cyclin-dependent kinase 9 (Homo sapiens); assay: Protac activity at CRBN/CDK9 in human HCT-116 cells assessed as induction of CDK9 degradation at 20 uM incubated for 6 hrs by Western blot analysis; assay type: cell-based
# [17] = target: CDK9/cyclin T1 (Homo sapiens, UniProt P50750); assay: Inhibition of CDK9/cyclin T1 (unknown origin) assessed as inhibition constant; assay type: protein-complex assay
# [18] = tested on: HeLa; assay: Antiproliferative activity against human Hela cells assessed as reduction in cell viability by MTT assay; assay type: functional, cell-based
# [19] = tested on: MCF7; assay: Antiproliferative activity against human MCF7 cells assessed as reduction in cell viability by MTT assay; assay type: functional, cell-based
# [20] = target: T1, Cyclin-dependent kinase 2; assay: Inhibition of human CDK2 using TMB as substrate preincubated for 210 mins followed by substrate addition and measured after 15 to 25 mins by spectrophotometric analysis
# [21] = tested on: MCF7; assay: Antiproliferative activity against human MCF7 cells assessed as reduction in cell proliferation incubated for 48 hrs by Sulfo-Rhodamine-B stain (SRB) assay; assay type: functional, cell-based; details: MCF7, 48 h
# [22] = target: T2, CDK2/Cyclin A2; assay: Inhibition of CDK2/cyclin A2 (unknown origin) using histone as substrate in presence of ATP by luminescent ADP detection assay; assay type: protein-complex assay
# [23] = tested on: HeLa; assay: Antiproliferative activity against human HeLa cells assessed as reduction in cell viability incubated for 3 days by MTT assay; assay type: functional, cell-based; details: 72 h
# [24] = target: CDK7/Cyclin H/MNAT1 (Homo sapiens, UniProt P50613); assay: Inhibition of CDK7/Cyclin H/MNAT1 (unknown origin) using 5-FAM-YSPTSPSYSPTSPSYSPTSPSKKK as substrate in presence of ATP by spectroscopic analysis; assay type: protein-complex assay
# [25] = tested on: HepG2; assay: Antiproliferative activity against human HepG2 cells assessed as reduction in cell viability by MTT assay; assay type: functional, cell-based
# [26] = tested on: A549; assay: Antiproliferative activity against human A549 cells assessed as reduction in cell viability by MTT assay; assay type: functional, cell-based
# [27] = tested on: Caco-2; assay: Antiproliferative activity against human Caco-2 cells assessed as reduction in cell viability by MTT assay; assay type: functional, cell-based
# [28] = tested on: Panel NCI-60 (60 carcinoma cell lines); assay: Antiproliferative activity against human Panel NCI-60 (60 carcinoma cell lines) cells assessed as inhibition of cell growth at 0.00001 M incubated for 48 hrs by sulforhodamine B assay; assay type: functional; design: scale not given: the % may be the effect or the level left; details: dose 10 µM
# Sequence of CDK9/cyclin T1 (O60563 whole entry): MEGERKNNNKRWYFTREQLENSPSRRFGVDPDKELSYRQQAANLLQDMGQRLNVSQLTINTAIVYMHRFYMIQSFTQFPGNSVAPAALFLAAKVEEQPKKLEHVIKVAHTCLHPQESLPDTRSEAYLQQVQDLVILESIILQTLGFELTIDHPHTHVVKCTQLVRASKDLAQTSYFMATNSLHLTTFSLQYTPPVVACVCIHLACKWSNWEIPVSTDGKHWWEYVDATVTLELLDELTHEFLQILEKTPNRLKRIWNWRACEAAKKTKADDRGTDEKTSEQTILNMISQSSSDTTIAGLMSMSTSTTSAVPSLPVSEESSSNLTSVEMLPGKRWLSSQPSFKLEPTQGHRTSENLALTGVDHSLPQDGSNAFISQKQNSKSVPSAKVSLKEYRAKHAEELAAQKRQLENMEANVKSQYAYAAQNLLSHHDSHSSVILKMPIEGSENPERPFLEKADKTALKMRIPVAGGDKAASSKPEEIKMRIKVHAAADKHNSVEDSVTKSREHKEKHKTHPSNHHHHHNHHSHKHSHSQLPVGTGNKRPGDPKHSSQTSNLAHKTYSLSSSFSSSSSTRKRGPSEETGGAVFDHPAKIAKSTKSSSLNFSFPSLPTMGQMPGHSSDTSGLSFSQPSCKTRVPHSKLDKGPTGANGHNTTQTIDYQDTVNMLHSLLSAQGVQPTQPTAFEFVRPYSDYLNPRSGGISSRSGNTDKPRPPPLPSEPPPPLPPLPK
# Sequence of CDK9/cyclin T1 (P50750 whole entry): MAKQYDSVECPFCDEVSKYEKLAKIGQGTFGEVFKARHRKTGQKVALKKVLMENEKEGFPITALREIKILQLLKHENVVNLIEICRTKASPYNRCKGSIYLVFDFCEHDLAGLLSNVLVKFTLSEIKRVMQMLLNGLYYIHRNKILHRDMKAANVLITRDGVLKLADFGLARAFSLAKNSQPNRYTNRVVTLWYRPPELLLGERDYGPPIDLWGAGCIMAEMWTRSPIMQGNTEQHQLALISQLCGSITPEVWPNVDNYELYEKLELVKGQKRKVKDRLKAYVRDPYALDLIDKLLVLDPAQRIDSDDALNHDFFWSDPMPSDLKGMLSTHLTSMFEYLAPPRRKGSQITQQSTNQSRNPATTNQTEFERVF
# T4 sequence (P50750 whole entry, looked up): as the sequence (P50750 whole entry) above
# T4 sequence (Q96SW2 whole entry, looked up): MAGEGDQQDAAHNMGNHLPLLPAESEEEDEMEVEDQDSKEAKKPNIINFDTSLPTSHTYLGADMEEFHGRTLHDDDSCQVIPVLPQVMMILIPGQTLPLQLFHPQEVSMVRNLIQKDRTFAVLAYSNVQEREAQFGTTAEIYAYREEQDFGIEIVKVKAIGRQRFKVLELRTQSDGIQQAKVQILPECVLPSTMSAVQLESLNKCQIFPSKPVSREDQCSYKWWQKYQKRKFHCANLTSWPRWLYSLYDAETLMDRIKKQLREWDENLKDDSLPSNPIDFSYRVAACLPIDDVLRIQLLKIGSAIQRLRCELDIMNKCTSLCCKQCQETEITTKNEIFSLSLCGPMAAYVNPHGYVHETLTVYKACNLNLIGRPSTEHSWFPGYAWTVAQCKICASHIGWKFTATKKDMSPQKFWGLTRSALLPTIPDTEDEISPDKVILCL
# Sequence of CDK7/Cyclin H/MNAT1 (P51946 whole entry): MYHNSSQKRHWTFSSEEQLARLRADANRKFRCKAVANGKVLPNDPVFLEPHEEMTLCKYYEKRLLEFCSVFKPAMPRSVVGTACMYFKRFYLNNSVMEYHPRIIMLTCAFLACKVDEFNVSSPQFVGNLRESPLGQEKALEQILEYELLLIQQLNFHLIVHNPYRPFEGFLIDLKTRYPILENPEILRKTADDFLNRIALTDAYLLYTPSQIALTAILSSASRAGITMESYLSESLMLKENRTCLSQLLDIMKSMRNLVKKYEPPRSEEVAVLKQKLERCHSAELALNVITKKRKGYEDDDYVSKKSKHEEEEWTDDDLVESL
# Sequence of CDK7/Cyclin H/MNAT1 (P50613 whole entry): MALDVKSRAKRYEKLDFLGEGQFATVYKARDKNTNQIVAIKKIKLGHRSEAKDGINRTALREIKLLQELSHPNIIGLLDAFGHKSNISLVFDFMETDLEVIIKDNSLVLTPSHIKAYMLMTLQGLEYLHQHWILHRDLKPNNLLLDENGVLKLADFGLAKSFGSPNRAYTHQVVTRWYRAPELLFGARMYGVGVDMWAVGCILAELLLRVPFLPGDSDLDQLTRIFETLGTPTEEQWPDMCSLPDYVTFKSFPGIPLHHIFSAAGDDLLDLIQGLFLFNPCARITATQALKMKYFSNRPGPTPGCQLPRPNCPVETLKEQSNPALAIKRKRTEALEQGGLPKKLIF
# Sequence of CDK7/Cyclin H/MNAT1 (P51948 whole entry, further chain): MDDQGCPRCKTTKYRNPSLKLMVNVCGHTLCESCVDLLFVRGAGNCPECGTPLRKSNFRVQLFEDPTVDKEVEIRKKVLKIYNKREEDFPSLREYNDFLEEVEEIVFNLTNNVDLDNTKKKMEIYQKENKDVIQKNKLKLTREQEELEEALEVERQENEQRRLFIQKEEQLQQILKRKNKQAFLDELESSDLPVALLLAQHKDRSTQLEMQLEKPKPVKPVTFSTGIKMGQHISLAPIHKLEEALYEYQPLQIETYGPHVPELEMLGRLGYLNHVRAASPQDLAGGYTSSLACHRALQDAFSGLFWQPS
# Sequence of Cyclin-dependent kinase 1 (P06493 whole entry): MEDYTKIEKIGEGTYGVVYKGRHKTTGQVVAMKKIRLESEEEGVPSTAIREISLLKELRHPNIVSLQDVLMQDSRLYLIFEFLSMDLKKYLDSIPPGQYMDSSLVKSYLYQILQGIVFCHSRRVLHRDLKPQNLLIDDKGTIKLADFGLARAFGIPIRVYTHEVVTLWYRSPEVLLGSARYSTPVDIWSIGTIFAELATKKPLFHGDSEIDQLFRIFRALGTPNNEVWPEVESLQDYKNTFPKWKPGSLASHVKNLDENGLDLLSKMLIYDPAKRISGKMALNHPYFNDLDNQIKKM
smiles,measurement,setting,value
CC(=O)N1N=C(c2c(O)c3ccccc3oc2=O)CC1c1ccccc1Cl (stereo not drawn),Ki,[1],0.00035 µM
O=C(CCCn1cc(CNC2CCCCC2)c(-c2ccccc2)n1)NO,IC50,[2],3.9 µM
same,IC50,[3],1.12 µM
same,IC50,[4],2.95 µM
same,IC50,[5],4.63 µM
O=C1CC(=O)N(c2ccc(F)cc2)C(=S)N1C(=O)c1ccccc1,IC50,[5],4.5 µM
CC(=O)N1C(=O)C(C(=O)c2ccc(F)cc2)C(=O)N(c2ccc(S(=O)(=O)Nc3nccs3)cc2)C1=S (stereo not drawn),IC50,[6],3.2 µM
CCOC(=O)c1cnn2c(-c3ccc(Cl)cc3)nc(NCc3ccccc3)nc12,inhibition at 10 µM,[7],41.8%
same,IC50,[8],2.09 µM
same,inhibition,[9],82.4%
Cc1cc(C)nc(NS(=O)(=O)c2ccc(N/C=C3\C(=O)NN=C3Nc3ccccc3)cc2)n1,inhibition,[10],40%
O=c1[nH]cc(-c2ccccc2Cl)c2nccn12,IC50,[11],1.5 µM
Clc1ccccc1Nc1nc(SCCc2ccccc2)nc2[nH]ncc12,IC50,[12],19.9 µM
same,IC50,[13],7.8 µM
same,IC50,[14],19.2 µM
CCCCCSc1nc(Nc2ccc(SC)cc2)c2cn[nH]c2n1,IC50,[12],19.9 µM
same,IC50,[13],8.8 µM
same,IC50,[14],19.2 µM
O=C1CCC(N2C(=O)c3cccc(OCCCCCOc4ccc(CC(=O)Nc5cc(C6CCC6)[nH]n5)cc4)c3C2=O)C(=O)N1 (stereo not drawn),Activity,[15],56%
same,Activity,[16],65%
CN(C)c1ccc(-c2cc(-c3c(O)c4ccccc4oc3=O)nc(N)c2C#N)cc1,Ki,[17],0.00326 µM
O=C1CC(=O)N(c2ccc(S(=O)(=O)Nc3nccs3)cc2)C(=S)N1C(=O)c1ccccc1,IC50,[6],4.5 µM
CCOC(=O)C1=C(Cn2cc(COc3ccccc3C3NC(=O)NC(CCl)=C3C(=O)OCC)nn2)NC(=O)NC1c1ccc(O)c(OC)c1 (stereo not drawn),IC50,[18],18 µM
O=C1NN=C(Nc2ccccc2)/C1=C/Nc1ccc(O)cc1,inhibition,[10],60%
same,IC50,[19],23.3 µM
C/C(=N\N=C\c1ccccc1)c1c(O)c2ccccc2oc1=O,Ki,[17],0.00326 µM
CCCCCSc1nc(Nc2ccccc2Cl)c2cn[nH]c2n1,IC50,[12],19.9 µM
same,IC50,[13],5.1 µM
same,IC50,[14],19.2 µM
COc1ccccc1/C=C/C(=C(C#N)C#N)c1ccc(NS(=O)(=O)c2ccc(C)cc2)cc1,IC50,[20],2.92 µM
same,IC50,[21],26.3 µM
O=C(Nc1ccc(F)cc1)c1cnn(-c2cc(NCc3ccccc3)ncn2)c1,IC50,[22],< 0.02 µM
COc1cccc2c1C(=O)c1c(O)c3c(c(O)c1C2=O)C[C@@](O)(C(=O)CO)C[C@@H]3O[C@H]1C[C@H](N)[C@H](O)[C@H](C)O1 [DOXORUBICIN],IC50,[23],1.11 µM
CCOC(=O)C1=C(CCl)NC(=O)NC1c1ccc(OCc2cn(CC3=C(C(=O)OCC)C(c4ccc([N+](=O)[O-])cc4)NC(=O)N3)nn2)cc1 (stereo not drawn),IC50,[18],18 µM
CCOC(=O)C1=C(Cn2cc(COc3ccccc3C3NC(=O)NC(CCl)=C3C(=O)OCC)nn2)NC(=O)NC1c1ccccc1F (stereo not drawn),IC50,[18],18 µM
CN(C)C/C=C/C(=O)Nc1ccc(C(=O)N[C@@]2(C)CCC[C@@H](Nc3ncc(Cl)c(-c4c[nH]c5ccccc45)n3)C2)nc1,IC50,[24],0.02 µM
CCOC(=O)C1=C(C)n2nc(Nc3ccccc3)c(C#N)c2NC1c1ccc(OC)cc1 (stereo not drawn),IC50,[25],17.1 µM
same,IC50,[19],10.1 µM
same,IC50,[26],29.9 µM
same,IC50,[27],25.2 µM
CCCCCSc1nc(OC(=O)c2ccccc2)c2cn[nH]c2n1,IC50,[12],19.8 µM
same,IC50,[13],14.8 µM
same,IC50,[14],18.9 µM
O=c1[nH]cc(-c2ccccc2F)c2nccn12,IC50,[11],3.2 µM
O=c1[nH]cc(-c2ccc(O)cc2)c2nccn12,IC50,[11],1.3 µM
COc1ccc(NC(=O)c2cnn(-c3cc(NCc4ccccc4)ncn3)c2)cc1,IC50,[22],< 0.02 µM
Cc1ccc(-n2cc(-c3ccccc3)c3c(SCC(=O)N/N=C\c4ccc(N(C)C)cc4)ncnc32)cc1,Activity,[28],<50%
O=C1CC(=O)N(c2ccc(S(=O)(=O)Nc3ncccn3)cc2)C(=S)N1C(=O)c1ccccc1,IC50,[6],3.1 µM
